Values after ≈ are worked out from the molar mass of the structure shown. Residues, ends and D or L forms follow the SMILES beside them.

Data set [1] has as its system Acinetobacter baumannii CCARM 12035 (MDRAB 12035). The format is cell-based. The following applies: multidrug-resistant strain; 1% peptone media, 16 h at 37 °C. The source says:
(§1) Four Gram-negative bacteria species (Escherichia coli KCTC 1682, Acinetobacter baumannii KCTC 2508, Pseudomonas aeruginosa KCTC 1637 and Salmonella typhimurium KCTC 1926) and three Gram-positive bacteria species (Staphylococcus aureus KCTC 1621, Bacillus subtilis KCTC 3028 and Staphylococcus epidermidis KCTC 1917) were procured from the Korean Collection for Type Cultures (KCTC). Multi-drug-resistant Gram-negative bacteria (Salmonella typhimurium CCARM 8003 and 8007, Escherichia coli CCARM 1229 and 1238, Pseudomonas aeruginosa CCARM 2002 and 2095 and Acinetobacter baumannii CCARM 12035 and 12036) were obtained from the Culture Collection of Antibiotic-Resistant Microbes (CCARM). To determine MICs, bacteria were cultured in Luria-Bertani (LB) medium for overnight at 37 °C. An aliquot of the culture was incubated in 1% peptone media at 37 °C until mid-log phase. 100 μl of serial 2-fold diluted peptides were treated in 96 well plates and added to 100 μl of 2 × 10^6 CFU/ml bacterial suspensions in 1% peptone media for 16 h at 37 °C.

In data set [2] the test system is Acinetobacter baumannii CCARM 12036 (MDRAB 12036). The data set is classed as cell-based. The following applies: multidrug-resistant strain; 1% peptone media, 16 h at 37 °C.
Excerpt: as §1

Data set [3] has as its system Acinetobacter baumannii KCTC 2508. The data set is classed as cell-based. Particulars: KCTC 2508, 16 h.
Excerpt: as §1

Data set [4] relates to Bacillus subtilis KCTC 3028. The data set is classed as cell-based. The following applies: KCTC 3028, 16 h.
Excerpt: as §1

For data set [5], the system named is Escherichia coli CCARM 1229 (MDREC 1229). The format is cell-based. Particulars: multidrug-resistant strain; 1% peptone media, 16 h at 37 °C.
Excerpt: as §1

Data set [6] concerns Escherichia coli CCARM 1238 (MDREC 1238). The format is cell-based. Particulars: multidrug-resistant strain; 1% peptone media, 16 h at 37 °C.
Excerpt: as §1

Data set [7] relates to Escherichia coli KCTC 1682. The format is cell-based. The following applies: KCTC 1682, 16 h.
Excerpt: as §1

Data set [8] relates to Gram-negative bacteria (E. coli, A. baumannii, P. aeruginosa, S. typhimurium). The data set is classed as cell-based. The following applies: 16 h.
Excerpt: as §1

The subject of data set [9] is Gram-positive bacteria (S. aureus, B. subtilis, S. epidermidis). The format is cell-based. The following applies: 16 h.
Excerpt: as §1

Data set [10] deals with Pseudomonas aeruginosa CCARM 2002 (MDRPA 2002). The format is cell-based. Particulars: multidrug-resistant strain; 1% peptone media, 16 h at 37 °C.
Excerpt: as §1

Data set [11] relates to Pseudomonas aeruginosa CCARM 2095 (MDRPA 2095). The data set is classed as cell-based. Particulars: multidrug-resistant strain; 1% peptone media, 16 h at 37 °C.
Excerpt: as §1

For data set [12], the system named is Pseudomonas aeruginosa KCTC 1637. The data set is classed as cell-based. The following applies: KCTC 1637, 16 h.
Excerpt: as §1

The test system of data set [13] is Salmonella typhimurium CCARM 8003 (MDRST 8003). The data set is classed as cell-based. The following applies: multidrug-resistant strain; 1% peptone media, 16 h at 37 °C.
Excerpt: as §1

For data set [14], the system named is Salmonella typhimurium CCARM 8007 (MDRST 8007). The format is cell-based. Particulars: multidrug-resistant strain; 1% peptone media, 16 h at 37 °C.
Excerpt: as §1

Data set [15] concerns Salmonella typhimurium KCTC 1926. The format is cell-based. The following applies: KCTC 1926, 16 h.
Excerpt: as §1

In data set [16] the test system is Staphylococcus aureus KCTC 1621. The format is cell-based. The following applies: KCTC 1621, 16 h.
Excerpt: as §1

For data set [17], the system named is Staphylococcus epidermidis KCTC 1917. The format is cell-based. The following applies: KCTC 1917, 16 h.
Excerpt: as §1

The test system of data set [18] is human red blood cells (hRBCs). As to the kind of experiment: Haemolytic activity. The format is cell-based. Particulars: red cells of human, 1 h. On the procedure:
Peptide-induced lysis of human red blood cells (hRBCs) was determined as follows. Fresh hRBCs were washed 2–3 times with phosphate-buffered saline (PBS) by centrifugation for 5 min at 2500 rpm at 4 °C. Peptides in PBS were incubated with 4% (v/v) hRBCs for 1 h at 37 °C. Samples were then centrifuged for 5 min at 1000 × g. The absorbance of the supernatant at 405 nm was used as a measure of haemolysis. As a positive control, 100% haemolysis was obtained by treating hRBCs with 0.1% Triton X-100.

The test system of data set [19] is S. aureus 3089(R) (MRSA 3089). The data set is classed as cell-based, Staphylococcus aureus. Particulars: multidrug-resistant strain; 1% peptone media, 16 h at 37 °C.
For data set [20], the system named is S. aureus 3108(R) (MRSA 3108). The format is cell-based, Staphylococcus aureus. Particulars: multidrug-resistant strain; 1% peptone media, 16 h at 37 °C.
The subject of data set [21] is S. aureus 3126(R) (MRSA 3126). The data set is classed as cell-based, Staphylococcus aureus. Particulars: multidrug-resistant strain; 1% peptone media, 16 h at 37 °C.
Data set [22] concerns mouse macrophage RAW264.7 cells. The following applies: 50 μM peptide, MTT, 18 h at 37 °C.
Data set [23] relates to mouse bone marrow-derived dendritic cells. The following applies: 50 μM peptide, MTT, 18 h at 37 °C.
Data set [24] can be described thus: LPS neutralization (LAL assay). The format is biochemical. The protocol:
LPS neutralization by the peptides were measured using LAL-QCL-1000^TM (Lonza, USA) kit using a modified protocol as described previously. The interaction between each peptide and FITC-LPS was monitored according to the change in fluorescence intensity (excitation = 480 nm, emission = 515 nm). Peptides and 0.5 μg/ml FITC-LPS were prepared in 10 mM phosphate buffer (pH 6.0). The binding between rhTLR4 (from R&D systems, Minneapolis, USA) or rhMD2 (R&D systems, Minneapolis, USA) and peptides was determined using the BLItz system (ForteBio, Menlo Park, CA)[53]. A Ni-NTA sensor was used to detect rhTLR4 and rhMD2 binding. Before the binding assay, the biosensor was hydrated for 10 min in PBS. An initial baseline of 15 s, loading for 60 s, baseline for 30 s, association for 60 s and dissociation for 60 s were used for measurement.

Data set [25] deals with T1, rhTLR4 (recombinant human Toll-like receptor 4) (human, UniProt O00206 24-631).
T1 construct: Toll-like receptor 4, recombinant human (rhTLR4), bought; No catalogue number is printed; source: bought: R&D systems, Minneapolis, USA
The data set can be described thus: BLI; BLItz system (ForteBio); rhTLR4 loaded on a Ni-NTA sensor, various amounts of peptide applied; biosensor hydrated 10 min in PBS; baseline 15 s, loading 60 s, baseline 30 s, association 60 s, dissociation 60 s. The following applies: both partners purified. (In BLI a coated tip is dipped into the sample, and binding shifts an interference pattern.)

T1 sequence (O00206 24-631): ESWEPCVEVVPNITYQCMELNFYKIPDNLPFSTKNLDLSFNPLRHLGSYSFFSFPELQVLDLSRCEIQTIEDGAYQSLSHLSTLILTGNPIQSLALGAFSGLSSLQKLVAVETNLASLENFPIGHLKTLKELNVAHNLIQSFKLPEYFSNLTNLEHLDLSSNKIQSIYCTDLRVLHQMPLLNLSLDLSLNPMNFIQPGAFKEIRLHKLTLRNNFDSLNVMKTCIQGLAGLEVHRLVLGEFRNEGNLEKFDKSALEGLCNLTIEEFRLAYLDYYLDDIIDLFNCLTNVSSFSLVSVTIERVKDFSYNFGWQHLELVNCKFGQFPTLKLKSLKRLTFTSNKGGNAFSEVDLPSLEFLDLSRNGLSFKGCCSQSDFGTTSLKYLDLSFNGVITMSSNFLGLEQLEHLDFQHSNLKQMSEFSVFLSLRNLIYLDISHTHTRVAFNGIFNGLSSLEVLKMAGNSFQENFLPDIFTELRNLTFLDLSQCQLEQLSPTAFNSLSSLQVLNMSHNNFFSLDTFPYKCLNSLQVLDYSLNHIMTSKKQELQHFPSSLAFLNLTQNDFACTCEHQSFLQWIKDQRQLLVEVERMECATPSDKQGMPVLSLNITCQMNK

`CC[C@H](C)[C@H](NC(=O)CNC(=O)[C@H](CCC(N)=O)NC(=O)[C@H](Cc1ccccc1)NC(=O)[C@@H](NC(=O)[C@H](CCCCN)NC(=O)[C@H](CCCCN)NC(=O)[C@H](CC(C)C)NC(=O)[C@H](C)NC(=O)[C@H](CC(N)=O)NC(=O)[C@H](CC(C)C)NC(=O)CN)C(C)C)C(=O)N[C@@H](Cc1c[nH]cn1)C(=O)N[C@@H](CCC(=O)O)C(=O)N[C@@H](C)C(=O)N[C@H](C(=O)N[C@@H](CCCCN)C(=O)N[C@@H](CC(C)C)C(=O)N[C@H](C(=O)N[C@@H](CC(N)=O)C(=O)N[C@@H](CC(N)=O)C(=O)N[C@@H](Cc1c[nH]cn1)C(=O)N[C@H](C(=O)N[C@@H](CCC(N)=O)C(=O)O)C(C)C)[C@@H](C)CC)[C@@H](C)CC` [Ps, Pseudin-2] (H-GLNALKKVFQGIHEAIKLINNHVQ-OH): in [1], the “MIC, MDRAB 12035” value came to 1 µM (≈ 2.69 µg/mL). The “MIC, MDRAB 12036” value in data set [2] stood at 2 µM (≈ 5.37 µg/mL). Moreover, the “MIC, A. baumannii” value in data set [3] is 1 µM (≈ 2.69 µg/mL). The “MIC, B. subtilis” value in data set [4] was determined as 4 µM (≈ 10.7 µg/mL). Further, in data set [5], the “MIC, MDREC 1229” value stood at 2 µM (≈ 5.37 µg/mL). Also, the “MIC, MDREC 1238” value in [6] is 1 µM (≈ 2.69 µg/mL). Also, the “MIC, E. coli” value in data set [7] turned out to be 1 µM (≈ 2.69 µg/mL). Also, in data set [8], the “Average MIC, Gram-negative” value came to 1.5 µM. The “Average MIC, Gram-positive” value in data set [9] came out at 4 µM. Further, the “MIC, MDRPA 2002” value in [10] came to 2 µM (≈ 5.37 µg/mL). Besides, the “MIC, MDRPA 2095” value in [11] turned out to be 2 µM (≈ 5.37 µg/mL). The “MIC, P. aeruginosa” value in [12] was found to be 2 µM (≈ 5.37 µg/mL). In addition, the “MIC, MDRST 8003” value in data set [13] is 4 µM (≈ 10.7 µg/mL). The “MIC, MDRST 8007” value in data set [14] stood at 2 µM (≈ 5.37 µg/mL). In [15], the “MIC, S. typhimurium” value worked out at 2 µM (≈ 5.37 µg/mL). Also, in data set [16], the “MIC, S. aureus” value was determined as 4 µM (≈ 10.7 µg/mL). For the same molecule, the “MIC, S. epidermidis” value in data set [17] was found to be 4 µM (≈ 10.7 µg/mL). Further, the “MHC (minimal peptide concentration that produces haemolysis)” value in [18] was 25 µM. Further, in [18] (100), the “haemolysis at 100 μM” value was “approximately 23%”. The “MIC, MRSA 3089” value in data set [19] stood at 4 µM (≈ 10.7 µg/mL). Besides, in data set [20], the “MIC, MRSA 3108” value came out at 4 µM (≈ 10.7 µg/mL). Also, the “MIC, MRSA 3126” value in data set [21] is 4 µM (≈ 10.7 µg/mL). Further, in data set [22], the “survival of RAW264.7 cells” value turned out to be 56%. For the same molecule, the “survival of dendritic cells” value in data set [23] was 44%.

Turning to LL-37, the “LPS neutralization (control peptide)” value in [24] is recorded as “high LPS neutralization”.

B1: Pseudin-2 (peptide)
peptide: GLNALKKVFQGIHEAIKLINNHVQ
notes: source: synthetic peptide (solid-phase, Fmoc; reversed-phase HPLC, purity >95%)
Broadly, the Kd is a measure of binding affinity in units of concentration. As to B1, the Kd in data set [25] was determined as 800 nM.

For the origin of these results see PMC5431190, “Investigation of cationicity and structure of pseudin-2 analogues for enhanced bacterial selectivity and anti-inflammatory activity” (Scientific Reports, 2017).
